Laboratory results taken from US5750552A, “Imidazoline derivative, possible tautomer thereof, and vulnerary including such derivative or tautomer” (Arax Co., Ltd., priority 1995, dated 1998).

Assays:
[1] = Single-dose toxicity study; type: in vivo; conditions: mouse, in vivo, oral, male ddY mice, two weeks
[2] = test system: ddY mice; assay: Single-dose toxicity study; type: in vivo; conditions: oral, male ddY mice, two weeks
[3] = test system: acetic acid-induced gastric ulcer; assay: Healing effect on acetic acid-induced gastric ulcer of rat; type: in vivo, Donryu rat; conditions: 25 mg/kg oral two times a day, 10 days
Protocol: Healing effect on acetic acid-induced gastric ulcer of rat
A male Donryu rat of 7-week age was subjected to abdominal incision to expose the stomach, with pentobarbital used as an anesthesia. Using a metal ring having an inside diameter of 10 mm, 200 μL of glacial acetic acid was applied, for 60 seconds, with a serosa-side of a boundary area between the antrum and the corps. The abdomen of the specimen rat subjected to the glacial acetic acid was closed by an operation, and the rat was then fed in a normal way. The compound prepared in Example 2, that is, 2-(2-dimethylaminobenzylsulfinyl)-5,5-dimethylimidazoline-4-thione was used as the specimen drug. This compound was orally administered to the specimen rat two times a day (at 9:00 a.m. and 5:00 p.m.), each time with a dose of 25 mg/kg, beginning on the day following the day on which the glacial acetic acid was applied to the rat. The oral administration continued for 10 consecutive days, with a total of 20 administrations. On the day following the last day of the administration, the specimen rat was sacrificed by ether, and the ulcer portion of the rat was semi-fixed with formalin. The surface area of the ulcer portion was measured. The healing percent (%) calculated on the basis of the measured surface area was 40.8%.

[4] = test system: wound in rat; assay: Healing effect on wound in rat; type: in vivo, SD rats; conditions: TABLE 7, 15 days; for Healing days: control 15.1 ± 0.22; for Healing Index: control 188.3 ± 18.2
Protocol: Healing Effect on wound in rat
Male 7-week SD rats were classified into groups each consisting of 6-7 rats, such that all the groups have substantially the same average weight. The experiment was performed on the rats according to a method of Tsurumi et al. (Oyo Yakuri, Vol. 7, pp833, 1973). Initially, the rats were subjected to an anesthesia with pentobarbital. The hair of the back of each rat was clipped, and the skin was disinfected with 70% ethanol. Then, the skin was lightly pulled and punched off in a direction from the right to the left by means of a punch whose diameter is 10 mm, so as to form two open wounds on portions of the back of the rat which are symmetrical to each other with respect to the center line of the back. The compounds of Examples indicated in the following TABLES 7 and 8 were used as specimen drugs, and orally administered once a day to each of the rats with doses indicated in the TABLES 7 and 8. The oral administration continued for 15 consecutive days, beginning from the first day when the wounds were formed on the back of each rat.
To clarify the healing effect on the wounds, an Healing Index and healing days were obtained in the following manner. Initially, the lengths of a major axis and a minor axis of each wound formed on the back were measured using calipers. On the basis of the measured length values, the area of each wound was calculated as the area of an ellipse. The Healing Index was obtained according to a method of Nakano et al. (Oyo Yakuri, Vol. 47, pp29, 1994). Described more specifically, a ratio of area of each wound was chronologically represented in a graph, and an area of the lower part of a curve in the graph during a period from the fifth day to the fifteenth day after the wounds were formed was obtained as the Healing Index. […] The healing days were obtained as the number of the days that were required for the wounds to be completely covered with regenerated epidermises. As for the wound that was healed in more than 15 days, the healing days were obtained as 16 days.

[5] = test system: indomethacin-induced gastric ulcer; assay: Inhibitory effect on indomethacin-induced gastric ulcer; type: in vivo, SD rats; conditions: 30 mg/kg oral, 30 min before indomethacin
Protocol: Inhibitory effect on indomethacin-induced gastric ulcer
Male SD rats of 7-week age were fasted for 24 hours, with a fast of water beginning in early morning of the day when the experiments were performed. The rats were classified into groups each consisting of eight rats, such that all the groups have substantially the same average weight. Before giving indomethacine to the rats, the compounds of the Examples indicated in TABLE 5 were orally administered as specimen drugs to the rats, with a dose of 30 mg/kg. Thirty minutes later, indomethacin was orally administered to each specimen rat, with a dose of 25 mg/kg (1 mL/rat). Seven hours later, the specimen rats were sacrificed by ether, and the gastric mucosa of each rat was semi-fixed with 2% formalin. The longitudinal length of the damaged area of gastric mucosa was measured, and the anti-ulcer percent values of the individual specimen drugs were calculated on the basis of the sum of the measured length values of each group of specimen rats, in the same manner as in EXAMPLE 19.

[6] = test system: hydrochloric acid-ethanol-induced gastric ulcer; assay: Inhibitory effect on hydrochloric acid-ethanol-induced gastric ulcer; type: in vivo, SD rats; conditions: 30 mg/kg oral, 30 min before hydrochloric acid-ethanol
Protocol: Inhibitory effect on hydrochloric acid-ethanol-induced gastric ulcer
Male SD rats of 7-week age were fasted for 24 hours, with a fast of water beginning in early morning of the day when the experiments were performed. The rats were classified into groups each consisting of five rats, such that all the groups have substantially the same average weight. Before giving hydrochloric acid-ethanol to the rats, the compounds of the Examples indicated in TABLE 4 were orally administered as specimen drugs to the rats, with a dose of 30 mg/kg. Thirty minutes later, 1 mL of 98% ethanol containing 200 mM of hydrochloric acid was orally administered to each specimen rat. One hour later, the specimen rats were sacrificed by ether, and the gastric mucosa of each rat was semi-fixed with 2% formalin. The longitudinal length of the damaged area of the gastric mucosa was measured, and the anti-ulcer percent values of the individual specimen drugs were calculated on the basis of the sum of the measured length values of each group of the specimen rats, in the same manner as in Example 19.

[7] = test system: gastric acid secretion in a pylorus ligated rat; assay: Inhibitory effect on the gastric acid secretion in a pylorus ligated rat; type: in vivo, SD rats; conditions: 10 mg/kg intraduodenal; 4 hours
Protocol: Inhibitory effect on the gastric acid secretion in a pylorus ligated rat Male 7-week SD rats were fasted for 24 hours, with a fast of water beginning in early morning of the day when the experiments were performed. The rats were classified into groups each consisting of five rats, such that all the groups have substantially the same average weight. The experiments were performed according to a method of Shay et. al. (Shay, H. et. al., Gastroenterology, Vol. 5, pp43, 1945). Described more specifically, each of the rats was subjected to a light anesthesia by ether, and the hair of the abdomen of each rat was clipped. Then, the abdomen was incised over a length of 1.5 cm along the center line downwards from a portion 1 cm below the xiphoid of the rat, and the stomach was taken out of the body. A portion connecting the pylorus and the duodenum was ligated by suturing thread. […] After the administration, the skin of the abdominal muscle and abdomen was sutured. The rats were kept in cages and fasted for 4 hours with a fast of water. Then, the rats were sacrificed by ether, and the stomach of each rat was removed. The gastric content was obtained from a small hole formed through the stomach of each rat and was collected in a test tube. […] An amount of supernatant was measured as a volume of gastric acid, and a total acidity of the gastric acid was also measured. A volume of gastric acid inhibitory percent (%) and a total acidity inhibitory percent (%) were calculated in the same manner as the ulcer inhibitory percent was calculated. The total acidity was obtained as a product of the amount of gastric acid secreted for 4 hours and the acidity per 1 mL of the gastric acid which was subjected to neutralization titration by an aqueous solution of 0.01N sodium hydroxide.

[8] = test system: water-immersion restraint stress-induced gastric ulcer; assay: Inhibitory effect on water-immersion restraint stress-induced gastric ulcer; type: in vivo, SD rats; conditions: 10 mg/kg oral, 30 min before stress
Protocol: Inhibitory effect on water-immersion restraint stress-induced gastric ulcer
Male 7-week SD rats were fasted for 24 hours, with a fast of water beginning in early morning of the day when the experiments were performed. The rats were classified into groups each consisting of five rats, such that all the groups have substantially the same average weight. Thirty minutes before giving a stress to the rats, the compounds of the Examples indicated in TABLE 3 were orally administered as specimen drugs to the rats, with a dose of 10 mg/kg. The rats were then kept in stress cages, and were given a stress by immersing the cages in a water bath kept at a substantially constant temperature of 23°±1° C., such that the water level was at the height of the xiphoid of the rats. Seven hours later, the specimen rats were sacrificed by ether, and the gastric mucosa of each rat was semi-fixed with 2% formaline. The longitudinal length of the damaged area of the gastric mucosa was measured. A sum of the measured length values of the rats of each group was calculated as an ulcer index. An anti-ulcer or ulcer inhibitory percent (%) was calculated as {1-(ulcer index of each group of specimen rats)/(ulcer index of non-specimen group)}×100.

SMILES	LD50 at 336 h [1] [mg/kg]	LD50 95% confidence limits [2] [mg/kg]	healing percent (ulcer surface area) [3] [%]	Healing days ([4]; 50 mg/kg oral once a day) [days]	Healing Index ([4]; 50 mg/kg oral once a day)	Healing days ([4]; 100 mg/kg oral once a day) [days]	Healing Index ([4]; 100 mg/kg oral once a day)	Inhibitory Percent (ulcer) [5] [%]	Inhibitory Percent (ulcer) [6] [%]	Total acidity Inhibitory percent [7] [%]	Volume of Gastric acid Inhibitory percent [7] [%]	Inhibitory Percent (ulcer) [8] [%]
CN(C)c1ccccc1C[S+]([O-])C1=NC(C)(C)C(=S)N1 (stereo not drawn) [Example 2, 2-(2-dimethylaminobenzylsulfinyl)-5,5-dimethylimidazolin-4-thione]	952	791 to 1138	40.8	13.8 ± 0.39	153.0 ± 13.2	14.6 ± 0.44	146.7 ± 12.4	100	–	–	–	–
CC1(C)N=C([S+]([O-])Cc2cccc3cccnc23)NC1=S (stereo not drawn) [Example 4, 2-(8-quinolinylmethylsulfinyl)-5,5-dimethylimidazolin-4-thione]	–	–	–	–	–	–	–	–	90.3	–	–	–
CCC1(C)N=C([S+]([O-])Cc2ccccc2N(C)C)NC1=S (stereo not drawn) [Example 16, 2-(2-dimethylaminobenzylsulfinyl)-5-ethyl-5-methylimidazolin-4-thione]	–	–	–	–	–	–	–	97.2	98.6	77.4	41.6	–
CCN(C)c1ccccc1C[S+]([O-])C1=NC(C)(C)C(=S)N1 (stereo not drawn) [Example 15, 2-(2-N-ethyl-N-methylaminobenzylsulfinyl)-5,5-dimethylimidazolin-4-thione]	–	–	–	–	–	–	–	99.2	97.4	91.3	60.1	99.9
